Measured values: US9284303B2, “Benzimidazole cannabinoid agonists bearing a substituted heterocyclic group” (priority 2006, dated 2016)
Read-outs that look alike come from different tables or passages of the source.

Columns and labels:
[1] = molecular target: T1, human CB1 (hCB1) receptor (Homo sapiens, UniProt P21554); test: Inhibition of forskolin-activated cAMP production upon activation of hCB1 (HTRF), CHO-K1 cells; format: cell-based; conditions: CB1 pEC50, hCB1-CHO-K1 cells, forskolin-activated cAMP, pEC50=-log(EC50)
T1 construct: expressed in transfected cells; host or cells: CHO-K1
Experimental: (§1) Functional activity of the test compounds was assessed by measuring their potency to inhibit forskolin-activated cAMP production upon activation of the human CB1 (hCB1) or human CB2 (hCB2) receptor through homogenous time resolved fluorescence (HTRF) assays.
CHO-K1 cells stably transfected with either hCB1 or hCB2 were grown up to 80-90% confluence in T175 Falcon flasks in DMEM/NUT MIX F-12 culture medium complemented with 2% Solution A (5.10^6 IU/l penicillin G, 5 g/l streptomycin sulphate, 5.5 g/l pyruvate, 14.6 g/l L-glutamine, 1M NaOH) and 10% foetal calf serum. Before the experiments, medium was removed, cells were washed with PBS/EDTA (140 mM NaCl, 1 mM Naz-EDTA, 8 mM Na2HPO4.2H2O, 8.5 mM KH2PO4, 2.7 mM KCl, 21 mM glucose), resuspended in stimulation buffer (HBSS 1x, IBMX 1 mM, Hepes 5 mM, MgCl2 10 mM, BSA 0.1%, pH 7.4). Cells were diluted to a concentration of 8.10^5 cell/ml for hCB1 experiments and 10^6 cells/ml for hCB2 experiments. Assays were performed using the cAMP Dynamic HTRF kit (CIS bio international, France) according to the recommendations of the manufacturer.
For CB1, each well of a 96 flat bottom black polystyrene assay plate (Costar) was filled with 25 μl stimulation buffer containing 6 μM forskolin and either test compound (in 2% DMSO), 2% DMSO or 2 μM CP55490 (in 2% DMSO). Then, 25 μl of the diluted cells was added (20,000 cells/well). After 30 minutes incubation in dark at room temperature, 25 μl cAMP-XL665 and 25 μl anti-cAMP cryptate (both at a final dilution of 1/80) was added to the cells.
After equilibration of the reaction mixtures for 1 to 24 hours in dark at room temperature, fluorescence was measured at 665 nm and 620 nm using a Discovery microplate fluorescence counter (Perkin Elmer), and the signal ratio of 665 nm/620 nm was calculated. The signal ratios of the test compounds were expressed relative to the signal ratios of the DMSO control (maximal signal ratio, no inhibition of cAMP) and CP55490 or WIN55212-2 for hCB1 and hCB2, respectively (minimal signal ratio, maximal inhibition of cAMP). From the dose response curves generated for each test compound, the dose at which 50% of the maximal inhibition of cAMP level is observed (EC50, expressed in the Tables as pEC50=−log(EC50) values) and the level of inhibition reached with 10 μM of the test compound compared to CP55490 (for hCB1) or WIN55212-2 (for hCB2) was calculated.

[2] = molecular target: T2, human CB2 (hCB2) receptor (Homo sapiens, UniProt P34972); test: Inhibition of forskolin-activated cAMP production upon activation of hCB2 (HTRF), CHO-K1 cells; format: cell-based; conditions: for EC50: forskolin-activated cAMP, pEC50=-log(EC50); for ratio CB2 agonism over CB1 agonism: Table C-1, selectivity hCB2 over hCB1; for ratio CB2 over CB1 agonism: Table C-3, comparison of art compounds A to E with compounds of the invention
T2 construct: expressed in transfected cells; host or cells: CHO-K1
Experimental: as §1
Before the experiments, medium was removed, cells were washed with PBS/EDTA (140 mM NaCl, 1 mM Naz-EDTA, 8 mM Na2HPO4.2H2O, 8.5 mM KH2PO4, 2.7 mM KCl, 21 mM glucose), resuspended in stimulation buffer (HBSS 1x, IBMX 1 mM, Hepes 5 mM, MgCl2 10 mM, BSA 0.1%, pH 7.4). Cells were diluted to a concentration of 8.10^5 cell/ml for hCB1 experiments and 10^6 cells/ml for hCB2 experiments. Assays were performed using the cAMP Dynamic HTRF kit (CIS bio international, France) according to the recommendations of the manufacturer.
Then, 20 μl of the diluted hCB2-CHO-K1 cells was added (20,000 cells/well). After 30 minutes incubation in dark at room temperature, 10 μl cAMP-XL665 and 10 μl anti-cAMP cryptate (both at a final dilution of 1/100) was added to the cells.

[3] = hCB2-CHO-K1 cells, read-out: CB2 pEC50 (converted)

T1 sequence (P21554 whole entry): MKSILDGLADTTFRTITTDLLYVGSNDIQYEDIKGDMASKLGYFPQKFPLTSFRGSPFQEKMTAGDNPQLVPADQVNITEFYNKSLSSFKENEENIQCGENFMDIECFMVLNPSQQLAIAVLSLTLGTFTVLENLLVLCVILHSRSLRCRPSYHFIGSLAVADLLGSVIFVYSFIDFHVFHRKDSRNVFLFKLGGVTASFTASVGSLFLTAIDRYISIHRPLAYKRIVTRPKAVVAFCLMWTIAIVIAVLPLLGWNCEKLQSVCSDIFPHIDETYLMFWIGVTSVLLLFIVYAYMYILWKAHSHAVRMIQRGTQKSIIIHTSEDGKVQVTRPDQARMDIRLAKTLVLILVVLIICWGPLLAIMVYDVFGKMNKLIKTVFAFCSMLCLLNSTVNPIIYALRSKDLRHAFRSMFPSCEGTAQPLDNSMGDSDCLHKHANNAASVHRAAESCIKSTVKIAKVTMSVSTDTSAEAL
T2 sequence (P34972 whole entry): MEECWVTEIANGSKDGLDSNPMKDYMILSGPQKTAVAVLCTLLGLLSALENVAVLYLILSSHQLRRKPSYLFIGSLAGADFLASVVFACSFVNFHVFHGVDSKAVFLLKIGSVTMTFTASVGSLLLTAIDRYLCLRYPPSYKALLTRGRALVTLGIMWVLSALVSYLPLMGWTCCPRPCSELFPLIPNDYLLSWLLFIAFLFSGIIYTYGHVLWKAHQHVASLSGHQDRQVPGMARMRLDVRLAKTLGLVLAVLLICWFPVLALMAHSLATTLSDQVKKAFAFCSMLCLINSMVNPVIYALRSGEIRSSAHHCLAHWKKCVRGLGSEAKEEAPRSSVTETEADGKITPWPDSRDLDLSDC

SMILES	EC50 [1] [nM]	EC50 [2, 3] [nM]	ratio CB2 agonism over CB1 agonism [2]	further results
CC(C)(C)c1nc2cc([S+]([O-])c3cc[n+]([O-])cc3)ccc2n1CC1CCOCC1 (stereo not shown) [Co. No. 2]	> 10000	38		
CCOc1cc(S(=O)(=O)c2ccc3c(c2)nc(C(C)(C)C)n3CC2CCOCC2)ccn1 [Co. No. 9]	1410	0.331	4266	ratio CB2 over CB1 agonism [2]: 4266
Cc1cc(S(=O)(=O)c2ccc3c(c2)nc(C(C)(C)C)n3CC2CCOCC2)ccn1 [Co. No. 13]	2040	1.26	1622	
CC(C)(C)c1nc2cc(S(=O)(=O)c3ccnc(OC(F)F)c3)ccc2n1CC1CCOCC1 [Co. No. 14]	3800	0.776	4898	ratio CB2 over CB1 agonism [2]: 4898
Cc1noc(C)c1S(=O)(=O)c1ccc2c(c1)nc(C(C)(C)C)n2CC1CCOCC1 [Co. No. 15]	575	1.05	556	
CC(C)(C)c1nc2cc(S(=O)(=O)c3ccnc(F)c3)ccc2n1CC1CCOCC1 [Co. No. 25]	407	0.813	495	ratio CB2 over CB1 agonism [2]: 495
CCC(C)(C)c1nc2cc(S(=O)(=O)c3ccc(OC)nn3)ccc2n1CC1CCC1 [Co. No. 26]	537	0.794	676	
CC(C)(C)c1nc2cc([S+]([O-])c3ccc(Cl)nn3)ccc2n1CC1CCOCC1 (stereo not shown) [Co. No. 31]	427	1.2	353	
CC(=O)c1ccc([S+]([O-])c2ccc3c(c2)nc(C(C)(C)C)n3CC2CCOCC2)nc1 (stereo not shown) [Co. No. 32]	7590	2.57	2951	
CC(C)(C)c1nc2cc(S(=O)(=O)c3ccc(C(N)=O)cn3)ccc2n1CC1CCOCC1 [Co. No. 33]	5750	3.09	1884	
CC(C)(C)c1nc2cc(S(=O)(=O)c3ccc[n+]([O-])c3)ccc2n1CC1CCOCC1 [Co. No. 34]	7410		4732	EC50 ([2]; CB2 pEC50, hCB2-CHO-K1 cells): 1.58 nM
COC(=O)c1ccc(S(=O)(=O)c2ccc3c(c2)nc(C(C)(C)C)n3CC2CCCCC2)nc1 [Co. No. 35]	32.4	0.407	79	
CC(C)(C)c1nc2cc(S(=O)(=O)c3ccc(C(=O)N4CCCC4)cn3)ccc2n1CC1CCCCC1 [Co. No. 38]	> 10000	2.75	>3631	
CC(C)(C)c1nc2cc(S(=O)(=O)c3ccc(O)nc3)ccc2n1CC1CCCCC1 [Co. No. 39]	2040	1.7	1216	
CC(C)(C)c1nc2cc(S(=O)(=O)c3ccc(C(=O)O)cn3)ccc2n1CC1CCCCC1 [Co. No. 46]	3890	1.05	3758	
CC(C)(C)c1nc2cc(S(=O)(=O)c3ccc(S(N)(=O)=O)s3)ccc2n1CC1CCOCC1 [Co. No. 47]	1480	1.7	871	

SMILES	EC50 [1] [nM]	EC50 [2, 3] [nM]	ratio CB2 agonism over CB1 agonism [2]	further results
COc1ccc(S(=O)(=O)c2ccc3c(c2)nc(C(C)(C)C)n3CC2CCOCC2)cn1 [Co. No. 54]	123	0.933		ratio CB2 agonism over CB1 agonism ([2]; listed as 54): 133
CC(C)(C)c1nc2cc(S(=O)(=O)c3ccc(S(C)(=O)=O)s3)ccc2n1CC1CCOCC1 [Co. No. 58]	1820	0.832		ratio CB2 agonism over CB1 agonism ([2]; listed as 58): 2188
CC(C)(C)c1nc2cc(S(=O)(=O)c3ncc(C(F)(F)F)cc3Cl)ccc2n1CC1CCOCC1 [Co. No. 61]	151	1.12	135	
CC(C)(C)c1nc2cc(S(=O)(=O)c3sc(S(C)(=O)=O)cc3Br)ccc2n1CC1CCOCC1 [Co. No. 63]	2820	0.977		ratio CB2 agonism over CB1 agonism ([2]; listed as 63): 2818
CC(C)(C)c1nc2cc(S(=O)(=O)c3sc(S(C)(=O)=O)cc3Br)ccc2n1CC1CCOCC1 [Co. No. 64]	1860			EC50 ([2]; CB2 pEC50, hCB2-CHO-K1 cells): 0.479 nM; ratio CB2 agonism over CB1 agonism ([2]; listed as 64): 3920
COc1cc(S(=O)(=O)c2ccc3c(c2)nc(C(C)(C)C)n3CC2CCOCC2)ccn1 [Co. No. 70]	1410	0.55	2570	
CC(C)(C)c1nc2cc(S(=O)(=O)c3ccc(C(=O)N4CCCC4)o3)ccc2n1CC1CCOCC1 [Co. No. 74]	2090	3.16	668	
CC(C)(C)c1nc2cc(S(=O)(=O)c3ncc(S(C)(=O)=O)cc3Br)ccc2n1CC1CCOCC1 [Co. No. 76]	> 10000	12	>832	
CC(C)(C)c1nc2cc(S(=O)(=O)c3cc(S(C)(=O)=O)cnc3O)ccc2n1CC1CCOCC1 [Co. No. 77]	2570	1.95	1303	
COc1ncc(S(C)(=O)=O)cc1S(=O)(=O)c1ccc2c(c1)nc(C(C)(C)C)n2CC1CCOCC1 [Co. No. 78]	> 10000	7.24	>1380	
CC(C)(C)c1nc2cc(S(=O)(=O)c3ccncc3)ccc2n1CC1CCOCC1 [Co. No. A, reference compound]				ratio CB2 over CB1 agonism [2]: 215
CC(C)(C)c1nc2cc(S(=O)(=O)c3cccnc3)ccc2n1CC1CCOCC1 [Co. No. B, reference compound]				ratio CB2 over CB1 agonism [2]: 30
CC(C)(C)c1nc2cc(S(=O)(=O)c3ccccn3)ccc2n1CC1CCOCC1 [Co. No. C, reference compound]				ratio CB2 over CB1 agonism [2]: 36
CC(C)(C)c1nc2cc(S(=O)(=O)c3ccoc3)ccc2n1CC1CCOCC1 [Co. No. D, reference compound]				ratio CB2 over CB1 agonism [2]: 26
CC(C)(C)Cc1nc2cc(S(=O)(=O)c3ccncc3)ccc2n1CC1CCOCC1 [Co. No. E, reference compound]				ratio CB2 over CB1 agonism [2]: 219
